Like-named read-outs stand apart in the source and are kept apart here.
Target: α-glucosidase (E.C.3.2.1.20)
Assay: α-Glucosidase enzyme inhibition assay (PNP-G substrate, spectrophotometric)
Format: biochemical
Experimental: α-Glucosidase (E.C.3.2.1.20) enzyme inhibition assay was performed according to the slightly modified method of Matsui et al. α-glucosidase (E.C.3.2.1.20) from Saccharomyces species, purchased from Wako Pure Chemical Industries Ltd. (Wako 076-02841). The enzyme inhibition was measured spectrophotometrically at pH 6.9 and at 37° C. using 0.7 mM p-nitrophenyl-α-D-glucopyranoside (PNP-G) as a substrate and 500 m units/mL enzyme, in 50 mM sodium phosphate buffer containing 100 mM NaCl. […] The increment in absorption at 400 nm, due to the hydrolysis of PNP-G by α-glucosidase, was monitored continuously on microplate spectrophotometer (Spectra Max Molecular Devices, USA).) [T. Matsui, C. Yoshimoto, K. Osajima, T. Oki, and Y. Osajima. Biosci. Biotech. Biochem., 1996, 60, 2019].

[1] = in vitro, pH 6.9, 37° C., 0.7 mM PNP-G substrate, 500 m units/mL enzyme, read-out: IC50 ± SEM
[2] = running text b24, unit inferred, read-out: IC50 (inhibitory effect on the enzyme)

SMILES | IC50 [1] [µM] | IC50 [2] [µM]
C[C@@]12CCC[C@@](C)(C(=O)O[C@@H]3O[C@H](CO)[C@@H](O)[C@H](O)[C@H]3O)[C@H]1CC[C@@]13C[C@@H](CC[C@H]12)[C@@](O)(CO)C3 (single isomer, unassigned; ent-1) [Compound 1, 16, β-17-hydroxy-ent-1-α-auzan 19-O-D-glucopyranosyl ester] | 407 ± 20 | 407 ± 20
C[C@@]12CCC[C@@](C)(C(=O)O)[C@H]1CC[C@@]13C[C@@H](CC[C@H]12)[C@@](O)(CO)C3 (single isomer, unassigned; ent-16) [Compound 2, ent-16,17-dihydroxy-(−)-kauran-19-oic acid] | 62.2 | 62.2 ± 0.008

From patent publication US20070287674A1, “New treatment of diabetes mellitus” (HEJ RESEARCH INSTITUTE OF CHEMISTRY, priority 2006, published 2007)
